Format in all cases: cell-based
One test concerns MM1S cells. As to the kind of experiment: MTT cell proliferation assay (MM1S). The following applies: Homo sapiens, MM1.S; MM1S multiple myeloma cells; approximately 64-72 hours incubation; 1 nM to 30 μM. Here is the method:
(§1) The MTT cell proliferation assay was used to study the cytotoxic properties of the compounds. The assay was performed according to the method described by Roche Molecular Biochemicals, with minor modifications. The assay is based on the cleavage of the tetrazolium salt, MTT, in the presence of an electron-coupling reagent. The water-insoluble formazan salt produced must be solubilized in an additional step. Cells grown in a 96-well tissue culture plate were incubated with the MTT solution for approximately 4 hours. After this incubation period, a water-insoluble formazan dye formed. After solubilization, the formazan dye was quantitated using a scanning multi-well spectrophotometer (ELISA reader). […] The cells were seeded at 5,000-10,000 cells in each well of 96-well plate in 100 μL of fresh culture medium and were allowed to attach overnight. The stock solutions of the compounds were diluted in 100 μL cell culture medium to obtain eight concentrations of each test compound, ranging from 1 nM to 30 μM. […] All optical densities were measured at 490 nm using a Vmax Kinetic Microplate Reader (Molecular Devices). In most cases, the assay was performed in duplicate and the results were presented as a mean percent inhibition to the negative control±SE. The following formula was used to calculate the percent of inhibition: Inhibition (%)=(1−(ODo/OD))×100.
(§2) The compounds were tested against Z138, MM1S and 3T3 cells. The Z138 cell line is a mature B-cell acute lymphoblastic leukemia cell line derived from a patient with chronic lumphocytic leukemia. The MM1S cell line was established from the peripheral blood of a human multiple myeloma patient. 3T3 cells are standard fibroblast cells; they were originally isolated from Swiss mouse embryo tissue.
For orientation: Tetrazolium assays rely on reduction of a dye to a coloured formazan, in cell work by metabolically active cells.

Another test relates to Z138 cells. As to the kind of experiment: MTT cell proliferation assay (Z138). Particulars: Homo sapiens, Z-138, approximately 64-72 hours incubation, 1 nM to 30 μM. How it is done: as §1, §2
For the next test, the system named is 3T3 cells. As to the kind of experiment: MTT cell proliferation assay (3T3). Particulars: Mus musculus, NIH3T3; 3T3 fibroblast cells; approximately 64-72 hours incubation; 1 nM to 30 μM. How it is done:
as §1, §2

Molecules are shown by their SMILES. pIC50: −log10 of the molar value.

Consider `NC(=O)/C(=C/n1cnc(-c2cc(C(F)(F)F)cc(C(F)(F)F)c2)n1)c1ccc(S(=O)(=O)NC2CC2)cc1` [Compound 100, (E)-3-(3-(3,5-bis(trifluoromethyl)phenyl)-1H-1,2,4-triazol-1-yl)-2-(4-(N-cyclopropylsulfamoyl)phenyl)acrylamide], for which the pIC50 in the test with MM1S cells was over 7.00; with Z138 cells, over 7.00; in the test with 3T3 cells, under 4.52.
As for `NC(=O)/C(=C/n1cnc(-c2cc(C(F)(F)F)cc(C(F)(F)F)c2)n1)c1ccc(S(=O)(=O)C2CC2)cc1` [Compound 101, (E)-3-(3-(3,5-bis(trifluoromethyl)phenyl)-1H-1,2,4-triazol-1-yl)-2-(4-(cyclopropylsulfonyl)phenyl)acrylamide], the pIC50 with MM1S cells, in the test on Z138 cells and in the test with 3T3 cells was over 7.00 each time.
With `CS(=O)(=O)Nc1cccc(/C(=C\n2cnc(-c3cc(C(F)(F)F)cc(C(F)(F)F)c3)n2)C(N)=O)c1` [Compound 102, (E)-3-(3-(3,5-bis(trifluoromethyl)phenyl)-1H-1,2,4-triazol-1-yl)-2-(3-(methylsulfonamido)phenyl)acrylamide], the pIC50 in the test on MM1S cells is 5.30 to 7.00; in the test on Z138 cells it was 5.30 to 7.00; in the test with 3T3 cells, under 4.52.
Regarding `CS(=O)(=O)c1ccc(/C(=C\n2cnc(-c3cc(C(F)(F)F)cc(C(F)(F)F)c3)n2)C(N)=O)cc1` [Compound 103, (E)-3-(3-(3,5-bis(trifluoromethyl)phenyl)-1H-1,2,4-triazol-1-yl)-2-(4-(methylsulfonyl)phenyl)acrylamide], the negative logarithm of the IC50 (pIC50) in the test with MM1S cells was over 7.00; with Z138 cells, 5.30 to 7.00; in the test with 3T3 cells, under 4.52.
The corresponding values for `CN(C)S(=O)(=O)c1ccc(/C(=C\n2cnc(-c3cc(C(F)(F)F)cc(C(F)(F)F)c3)n2)C(N)=O)cc1` [Compound 104, (E)-3-(3-(3,5-bis(trifluoromethyl)phenyl)-1H-1,2,4-triazol-1-yl)-2-(4-(N,N-dimethylsulfamoyl)phenyl)acrylamide] are 5.30 to 7.00, 5.30 to 7.00 and under 4.52.
The corresponding values for `NC(=O)/C(=C/n1cnc(-c2cc(C(F)(F)F)cc(C(F)(F)F)c2)n1)c1ccc(S(=O)(=O)N2CCC(F)(F)CC2)cc1` [Compound 105, (E)-3-(3-(3,5-bis(trifluoromethyl)phenyl)-1H-1,2,4-triazol-1-yl)-2-(4-(4,4-difluoropiperidin-1-ylsulfonyl)phenyl)acrylamide] are over 7.00, over 7.00 and 5.30 to 7.00.
The corresponding values for `NC(=O)/C(=C/n1cnc(-c2cc(C(F)(F)F)cc(C(F)(F)F)c2)n1)c1ccc(S(=O)(=O)N2CCC(C(F)(F)F)CC2)cc1` [Compound 106, (E)-3-(3-(3,5-bis(trifluoromethyl)phenyl)-1H-1,2,4-triazol-1-yl)-2-(4-(4-(trifluoromethyl)piperidin-1-ylsulfonyl)phenyl)acrylamide] are 5.30 to 7.00, 5.30 to 7.00 and under 4.52.
Take `NC(=O)/C(=C/n1cnc(-c2cc(C(F)(F)F)cc(C(F)(F)F)c2)n1)c1ccc(S(=O)(=O)N2CCC2)cc1` [Compound 107, (E)-2-(4-(azetidin-1-ylsulfonyl)phenyl)-3-(3-(3,5-bis(trifluoromethyl)phenyl)-1H-1,2,4-triazol-1-yl)acrylamide]: the values for the pIC50 with MM1S cells, in the test with Z138 cells and with 3T3 cells were over 7.00, over 7.00 and 5.30 to 7.00, respectively.
Regarding `NC(=O)/C(=C/n1cnc(-c2cc(C(F)(F)F)cc(C(F)(F)F)c2)n1)c1ccc(S(=O)(=O)N2CCOCC2)cc1` [Compound 108, (E)-3-(3-(3,5-bis(trifluoromethyl)phenyl)-1H-1,2,4-triazol-1-yl)-2-(4-(morpholinosulfonyl)phenyl)acrylamide], the negative-log IC50 (pIC50) in the test on MM1S cells is over 7.00; in the test on Z138 cells it was 5.30 to 7.00; in the test on 3T3 cells, 5.30 to 7.00.
`NC(=O)/C(=C/n1cnc(-c2cc(C(F)(F)F)cc(C(F)(F)F)c2)n1)c1ccc(S(=O)(=O)N2CCCCC2)cc1` [Compound 109, (E)-3-(3-(3,5-bis(trifluoromethyl)phenyl)-1H-1,2,4-triazol-1-yl)-2-(4-(piperidin-1-ylsulfonyl)phenyl)acrylamide]: the pIC50 with MM1S cells, in the test with Z138 cells and in the test on 3T3 cells was 5.30 to 7.00 in each case.
In the case of `NC(=O)/C(=C/n1cnc(-c2cc(C(F)(F)F)cc(C(F)(F)F)c2)n1)c1ccc(S(=O)(=O)N2CC(F)C2)cc1` [Compound 110, (E)-3-(3-(3,5-bis(trifluoromethyl)phenyl)-1H-1,2,4-triazol-1-yl)-2-(4-(3-fluoroazetidin-1-ylsulfonyl)phenyl)acrylamide], the pIC50 is over 7.00 in the test on MM1S cells, over 7.00 in the test on Z138 cells and 5.30 to 7.00 with 3T3 cells.
With `NC(=O)/C(=C/n1cnc(-c2cc(C(F)(F)F)cc(C(F)(F)F)c2)n1)c1ccc(S(=O)(=O)N2CC(F)(F)C2)cc1` [Compound 111, (E)-3-(3-(3,5-bis(trifluoromethyl)phenyl)-1H-1,2,4-triazol-1-yl)-2-(4-(3,3-difluoroazetidin-1-ylsulfonyl)phenyl)acrylamide], the figures for the pIC50 in the test with MM1S cells, with Z138 cells and in the test on 3T3 cells were over 7.00, over 7.00 and 5.30 to 7.00, respectively.
For the compound `NC(=O)/C(=C/n1cnc(-c2cc(C(F)(F)F)cc(C(F)(F)F)c2)n1)c1ccc(S(=O)(=O)N2CCCC2)cc1` [Compound 112, (E)-3-(3-(3,5-bis(trifluoromethyl)phenyl)-1H-1,2,4-triazol-1-yl)-2-(4-(pyrrolidin-1-ylsulfonyl)phenyl)acrylamide], the pIC50 was over 7.00 in the test with MM1S cells, over 7.00 in the test on Z138 cells and 5.30 to 7.00 with 3T3 cells.
Take `NC(=O)/C(=C/n1cnc(-c2cc(C(F)(F)F)cc(C(F)(F)F)c2)n1)c1ccc(S(=O)(=O)N2CCC(F)(F)C2)cc1` [Compound 113, (E)-3-(3-(3,5-bis(trifluoromethyl)phenyl)-1H-1,2,4-triazol-1-yl)-2-(4-(3,3-difluoropyrrolidin-1-ylsulfonyl)phenyl)acrylamide]: the pIC50 in the test with MM1S cells, in the test on Z138 cells and in the test on 3T3 cells was over 7.00 throughout.
In the case of `NC(=O)/C(=C/n1cnc(-c2cc(C(F)(F)F)cc(C(F)(F)F)c2)n1)c1ccc(S(=O)(=O)N2CCC(F)CC2)cc1` [Compound 114, (E)-3-(3-(3,5-bis(trifluoromethyl)phenyl)-1H-1,2,4-triazol-1-yl)-2-(4-(4-fluoropiperidin-1-ylsulfonyl)phenyl)acrylamide], the pIC50 with MM1S cells, in the test on Z138 cells and in the test on 3T3 cells was over 7.00 throughout.
Regarding `CN1CCN(S(=O)(=O)c2ccc(/C(=C\n3cnc(-c4cc(C(F)(F)F)cc(C(F)(F)F)c4)n3)C(N)=O)cc2)CC1` [Compound 115, (E)-3-(3-(3,5-bis(trifluoromethyl)phenyl)-1H-1,2,4-triazol-1-yl)-2-(4-(4-methylpiperazin-1-ylsulfonyl)phenyl)acrylamide], the pIC50 in the test with MM1S cells, in the test on Z138 cells and in the test with 3T3 cells was 5.30 to 7.00 each time.
In the case of `CC1(C)CN(S(=O)(=O)c2ccc(/C(=C\n3cnc(-c4cc(C(F)(F)F)cc(C(F)(F)F)c4)n3)C(N)=O)cc2)CCO1` [Compound 116, (E)-3-(3-(3,5-bis(trifluoromethyl)phenyl)-1H-1,2,4-triazol-1-yl)-2-(4-(2,2-dimethylmorpholinosulfonyl)phenyl)acrylamide], the pIC50 with MM1S cells, with Z138 cells and in the test on 3T3 cells was 5.30 to 7.00 throughout.
For the compound `NC(=O)/C(=C/n1cnc(-c2cc(C(F)(F)F)cc(C(F)(F)F)c2)n1)c1ccc(S(=O)(=O)N2CC[C@@H](F)C2)cc1` [Compound 117, (R,E)-3-(3-(3,5-bis(trifluoromethyl)phenyl)-1H-1,2,4-triazol-1-yl)-2-(4-(3-fluoropyrrolidin-1-ylsulfonyl)phenyl)acrylamide], the figures for the negative logarithm of the IC50 (pIC50) in the test with MM1S cells, in the test with Z138 cells and in the test with 3T3 cells were over 7.00, over 7.00 and 5.30 to 7.00, respectively.
Consider `NC(=O)/C(=C/n1cnc(-c2cc(C(F)(F)F)cc(C(F)(F)F)c2)n1)c1ccc(S(=O)(=O)N2CCCOCC2)cc1` [Compound 118, (E)-2-(4-(1,4-oxazepan-4-ylsulfonyl)phenyl)-3-(3-(3,5-bis(trifluoromethyl)phenyl)-1H-1,2,4-triazol-1-yl)acrylamide], for which the values for the pIC50 in the test with MM1S cells, in the test with Z138 cells and with 3T3 cells were over 7.00, over 7.00 and 5.30 to 7.00, respectively.
`NC(=O)/C(=C/n1cnc(-c2cc(C(F)(F)F)cc(C(F)(F)F)c2)n1)c1cccc(S(=O)(=O)N2CCOCC2)c1` [Compound 119, (E)-3-(3-(3,5-bis(trifluoromethyl)phenyl)-1H-1,2,4-triazol-1-yl)-2-(3-(morpholinosulfonyl)phenyl)acrylamide]: the pIC50 in the test on MM1S cells is 5.30 to 7.00; with Z138 cells, 5.30 to 7.00; with 3T3 cells, under 4.52.

A word on the pIC50: it is −log10 of the IC50, conventionally taken in molar units. Low values mean a large IC50, high ones a small IC50.

Values taken from patent publication US10526295B2, “Nuclear transport modulators and uses thereof” (Karyopharm Therapeutics Inc., priority 2015, dated 2020).
